Results as given in patent publication US20250171462A1 (NICO Therapeutics, Inc., priority 2022, published 2025).
pIC50: −log10 of the molar value. Like-named read-outs stand apart in the source and are kept apart here.

Target: T1, full-length SARM1 (FL-SARM1) (Homo sapiens, UniProt Q6SZW1)
T1 sequence (Q6SZW1 28-724): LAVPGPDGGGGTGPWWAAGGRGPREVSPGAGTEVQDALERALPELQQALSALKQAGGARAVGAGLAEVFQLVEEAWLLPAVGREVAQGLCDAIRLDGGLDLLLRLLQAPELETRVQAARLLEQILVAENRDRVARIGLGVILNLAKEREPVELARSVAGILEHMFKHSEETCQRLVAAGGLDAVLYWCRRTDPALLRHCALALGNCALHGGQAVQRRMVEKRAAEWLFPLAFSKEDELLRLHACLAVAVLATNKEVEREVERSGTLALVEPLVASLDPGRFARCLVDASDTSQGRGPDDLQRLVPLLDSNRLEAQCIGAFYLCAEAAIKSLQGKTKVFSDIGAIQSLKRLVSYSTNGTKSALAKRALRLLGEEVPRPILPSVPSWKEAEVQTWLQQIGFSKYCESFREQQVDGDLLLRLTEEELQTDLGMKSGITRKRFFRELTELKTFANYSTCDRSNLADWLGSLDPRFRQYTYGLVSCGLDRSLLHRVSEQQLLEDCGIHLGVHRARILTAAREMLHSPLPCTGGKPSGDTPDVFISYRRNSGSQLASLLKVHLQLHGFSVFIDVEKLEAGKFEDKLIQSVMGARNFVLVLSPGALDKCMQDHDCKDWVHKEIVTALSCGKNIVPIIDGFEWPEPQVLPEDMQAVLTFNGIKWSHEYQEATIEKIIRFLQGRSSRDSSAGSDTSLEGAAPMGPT
Test: FL-SARM1 cellular lysate assay (NAD/NADH-Glo detection of remaining NAD+, NMN-activated)
Settings: for IC50: Activity (μM) (IC50)

[1] = read-out: Activity (IC50 class), 11 point curve
[2] = Activity (IC50 class), 11 point curve

Method: Preparation of full-length SARM1 (FL-SARM1) lysate: HEK293T cells (ATCC: CRL-3216) were grown on 150 mm TC-treated dishes to 80-90% confluency in complete DMEM (DMEM (Thermo Fisher: 11965175) supplemented with 10% HI—FBS (VWR: 10802-772), 1× Pen/Strep (Thermo Fisher: 15140122), 1×NEAA (Thermo Fisher: 1140050), 1× glutamax (Thermo Fisher: 35050061), and 1 mM sodium pyruvate (Thermo Fisher: 11360070)) at 37° C. and 5% CO2. One hour prior to transfection, the media was replaced with fresh, 37° C. complete DMEM (20 mL per one 150 mm dish) supplemented with additional 10 mM glucose (Alfa Aesar AAJ60067EQE). Per one 150 mm dish, 30 μg FL-SARM1 (SEQ. ID. 1; cloned in-house) plasmid was dissolved in 1 mL DMEM at ambient temperature and were mixed by inverting the tube 8-10 times. 90 μL of GenJet™ in vitro DNA transfection reagent (Ver2) was dissolved in 1 mL DMEM at ambient temperature and were mixed by inverting the tube 8-10 times. The plasmid and transfection agent solutions were combined, mixed by 8-10 inversions and incubated for 10 minutes at ambient temperature. 2 mL of this transfection mixture was added to each dish containing HEK293T cells as prepared above followed by a gentle mixing of 4-5 horizontal rotations. The dishes were incubated at 37° C. and 5% CO2 for 24 h. The dishes were removed from the incubator, the medium was aspirated and the cells were scraped off using cell scrapers in ice-cold 1×PBS (5 mL/dish, Thermo Fisher Scientific 10010023). The collected cells were centrifuged at 300 g for 5 minutes at 4° C. The supernatant was aspirated and the pellet was frozen at −80° C. until needed. The cell pellet from 30 dishes was dissolved in 30 mL 1×PBS supplemented with 4 tablets of Complete, Mini EDTA-free protease inhibitor cocktail at 4° C. This mixture was sonicated on ice for 10 minutes at 50% amplitude with a 1 second on/1 second off interval using a Model 120 sonicator (Thermo Fisher Scientific, FB120110). The lysate was centrifuged at 16000 g for 10 minutes at 4° C.
To a white 384-well Proxiplate (PerkinElmer, PE-6008280) was added 50 nL/well of a DMSO solution containing test compounds followed by 7.5 μL/well of a 0.067 mg/mL solution of SARMi cellular lysate in reaction buffer (DPBS containing CHAPSO (0.1%) and fatty acid free BSA (0.032%)). The plate was centrifuged for 1 minute at 1000 RPM and then placed in an incubator at 23° C. for 15 minutes. To the wells were added 2.5 μL/well of a solution containing 40 M NAD^+ and 4 mM nicotinamide mononucleotide (NMN) in reaction buffer. The plate was centrifuged for 1 min at 1000 RPM, the plate was sealed and placed in an incubator at 23° C. for 3.5 hours before adding 3.5 μL/well of NAD/NADH-Glo™ solution (preparation as described by Promega using the extended detection protocol). The plate was centrifuged for 1 minute at 1000 RPM and then incubated at 23° C. for 20 minutes. 1 μL/well of a 3.625 mM solution of menadione in DMSO was added and the plate was centrifuged for 1 minute at 1000 RPM. Relative light units (RLU) were recorded using an Envision plate reader at a height of 6.5 mm.
IC50 values were calculated from an 11 point curve using ½ log dilutions using a four-parameter logistic regression curve fit.

| Structure (SMILES) | IC50 (11 point curve) | pIC50 [1] | pIC50 [2] |
| --- | --- | --- | --- |
| CC[C@H]1C[C@H]1C(=O)Nc1ccc(C)c(-c2ccccn2)c1 (single isomer, unassigned) [Example 109, cis-2-ethyl-N-(4-methyl-3-pyridin-2-ylphenyl)cyclopropane-1-carboxamide] | 0.3 µM | 6.00 to 10.00 |  |
| Cc1cc(C(F)(F)F)c(NC(=O)N2[C@@H]3C[C@@H](C)C[C@H]2C3)cc1-c1cccnn1 [Example 244, cis-3-methyl-N-[4-methyl-5-pyridazin-3-yl-2-(trifluoromethyl)phenyl]-6-azabicyclo[3.1.1]heptane-6-carboxamide] | 16 µM |  | < 5.00 |
| Cc1ccc(NC(=O)N2C3C[C@@H](C)C[C@H]2C3)cc1-c1cccnn1 [Example 62, cis-3-methyl-N-(4-methyl-3-pyridazin-3-yl-phenyl)-6-azabicyclo[3.1.1]heptane-6-carboxamide] | 0.02 µM | 6.00 to 10.00 |  |
| C[C@@H]1CC2C[C@H](C1)N2C(=O)Nc1ccc(Br)c(-c2nccnn2)c1 [Example 315] | 0.08 µM | 6.00 to 10.00 |  |
| Cc1ccc(NC(=O)[C@H]2C[C@H]3C[C@H]3N2c2cnccn2)cc1-c1ncc(F)cn1 [Example 264, (1R,3R,5R)-N-[3-(5-fluoropyrimidin-2-yl)-4-methylphenyl]-2-pyrazin-2-yl-2-azabicyclo[3.1.0]hexane-3-carboxamide] | 1.1 µM |  | 5.00 to 6.00 |
| Cc1c(F)cc(NC(=O)N2C3CCCC2C3)cc1-c1ccccn1 [Example 69, N-(3-fluoro-4-methyl-5-(pyridin-2-yl)phenyl)-6-azabicyclo[3.1.1]heptane-6-carboxamide] | 0.08 µM | 6.00 to 10.00 |  |
| Cc1ccc(NC(=O)N2CCCC2c2cnn(C)c2)cc1-c1ccccn1 (racemic) [Example 90, 2-(1-methylpyrazol-4-yl)-N-(4-methyl-3-pyridin-2-ylphenyl)pyrrolidine-1-carboxamide] | 14 µM |  | < 5.00 |
| Cc1ccc(NC(=O)[C@H]2C[C@H]3C[C@H]3N2c2ncccn2)cc1-c1ncccn1 [Example 266, (1R,3R,5R)-N-(4-methyl-3-pyrimidin-2-ylphenyl)-2-pyrimidin-2-yl-2-azabicyclo[3.1.0]hexane-3-carboxamide] | 4.2 µM |  | 5.00 to 6.00 |
| Cc1ccc(NC(=O)N2[C@@H]3C[C@@H](C)C[C@H]2C3)cc1-c1cncc(C(F)(F)F)n1 [Example 228, cis-3-methyl-N-[4-methyl-3-[6-(trifluoromethyl)pyrazin-2-yl]phenyl]-6-azabicyclo[3.1.1]heptane-6-carboxamide] | 0.09 µM | 6.00 to 10.00 |  |
| N#CCc1ccc(NC(=O)[C@@H]2CC2(F)F)cc1-c1ccccn1 [Example 145, (1S)-N-[4-(cyanomethyl)-3-pyridin-2-ylphenyl]-2,2-difluorocyclopropane-1-carboxamide] | 5 µM |  | 5.00 to 6.00 |
| N#CCc1ccc(NC(=O)N2C3CCCC2C3)cc1-c1ccccn1 [Example 19, N-(4-(cyanomethyl)-3-(pyridin-2-yl)phenyl)-6-azabicyclo[3.1.1]heptane-6-carboxamide] | 0.2 µM | 6.00 to 10.00 |  |
| Cc1ccc(NC(=O)[C@@H]2CN(CC(F)(F)F)C[C@H]2c2ccccn2)cc1-c1ncc(F)cn1 (racemic) [Example 280, trans-N-[3-(5-fluoropyrimidin-2-yl)-4-methylphenyl]-4-pyridin-2-yl-1-(2,2,2-trifluoroethyl)pyrrolidine-3-carboxamide] | 28 µM |  | < 5.00 |
| Cc1ccc(NC(=O)C2C3CCC2CC3)cc1-c1cccnn1 (stereo not drawn) [Example 103, N-(4-methyl-3-pyridazin-3-ylphenyl)bicyclo[2.2.1]heptane-7-carboxamide] | 0.5 µM | 6.00 to 10.00 |  |
| CCOC(C)[C@@]12CC(C[C@@H](C)C1)N2C(=O)Nc1ccc(C)c(-c2ncc(F)cn2)c1 (single isomer, unassigned) [Example 187, cis-1-(1-ethoxyethyl)-N-(3-(5-fluoropyrimidin-2-yl)-4-methylphenyl)-3-methyl-6-azabicyclo[3.1.1]heptane-6-carboxamide] | 0.2 µM | 6.00 to 10.00 |  |
| CCc1ccc(NC(=O)N2C3CCCC2C3)cc1-c1ccc(F)cn1 [Example 28, N-(4-ethyl-3-(5-fluoropyridin-2-yl)phenyl)-6-azabicyclo[3.1.1]heptane-6-carboxamide] | 0.6 µM | 6.00 to 10.00 |  |
| Cc1ccc(NC(=O)[C@@H]2C[C@@H]3C[C@@H]3N2c2ncccn2)cc1-c1ncc(F)cn1 [Example 268, (1S,3S,5S)-N-[3-(5-fluoropyrimidin-2-yl)-4-methylphenyl]-2-pyrimidin-2-yl-2-azabicyclo[3.1.0]hexane-3-carboxamide] | 33 µM |  | < 5.00 |
| Cc1ccc(NC(=O)N2C3CCCC2C3)cc1-c1nccc(C#N)n1 [Example 67, N-(3-(4-cyanopyrimidin-2-yl)-4-methyl-phenyl)-6-azabicyclo[3.1.1]heptane-6-carboxamide] | 0.6 µM | 6.00 to 10.00 |  |
| COc1cncc(-c2cc(NC(=O)N3C4C[C@@H](C)C[C@H]3C4)ccc2C)n1 [Example 218, cis-N-(3-(6-methoxypyrazin-2-yl)-4-methylphenyl)-3-methyl-6-azabicyclo[3.1.1]heptane-6-carboxamide] | 0.03 µM | 6.00 to 10.00 |  |
| Cc1ccc(NC(=O)N2CCCC2c2ccnn2C)cc1-c1ccccn1 (racemic) [Example 89, 2-(2-methylpyrazol-3-yl)-N-(4-methyl-3-pyridin-2-ylphenyl)pyrrolidine-1-carboxamide] | 12 µM |  | < 5.00 |
| COC(=O)N1C[C@@H]2C[C@H]1CN2C(=O)Nc1ccc(C)c(-c2ccccn2)c1 [Example 1, (1S,4S)-Methyl 5-((4-methyl-3-(pyridin-2-yl)phenyl)carbamoyl)-2,5-diazabicyclo[2.2.1]heptane-2-carboxylate] | 23 µM |  | < 5.00 |
| CCc1ccc(-c2cc(NC(=O)N3C4C[C@@H](C)C[C@H]3C4)ccc2C)nn1 [Example 234, cis-N-[3-(6-ethylpyridazin-3-yl)-4-methylphenyl]-3-methyl-6-azabicyclo[3.1.1]heptane-6-carboxamide] | 0.4 µM | 6.00 to 10.00 |  |
| Cc1ccc(NC(=O)N2C[C@H]3C[C@@H]2CN3c2ccccc2)cc1-c1ccccn1 [Example 38, (1R,4R)-N-(4-methyl-3-(pyridin-2-yl)phenyl)-5-phenyl-2,5-diazabicyclo[2.2.1]heptane-2-carboxamide] | 7.7 µM |  | 5.00 to 6.00 |
| Cc1ccc(NC(=O)C2CC3CC3CN2c2ccccn2)cc1-c1ncc(F)cn1 (mixture of isomers) [Example 260, N-(3-(5-fluoropyrimidin-2-yl)-4-methylphenyl)-3-(pyridin-2-yl)-3-azabicyclo[4.1.0]heptane-4-carboxamide] | 1.3 µM |  | 5.00 to 6.00 |
| CCOC(C)[C@@]12CC(C[C@@H](C)C1)N2C(=O)Nc1ccc(C)c(-c2ncc(F)cn2)c1 (single isomer, unassigned) [Example 189, cis-1-(1-ethoxyethyl)-N-(3-(5-fluoropyrimidin-2-yl)-4-methylphenyl)-3-methyl-6-azabicyclo[3.1.1]heptane-6-carboxamide] | 1.9 µM |  | 5.00 to 6.00 |
| Cc1ccc(NC(=O)[C@@H]2CC2(F)F)cc1-c1cccc(C#N)n1 [Example 159, (1S)-N-[3-(6-cyanopyridin-2-yl)-4-methylphenyl]-2,2-difluorocyclopropane-1-carboxamide] | 9.8 µM |  | 5.00 to 6.00 |
| Cc1ccc(NC(=O)[C@H]2[C@@H](C)CCN2c2ccccn2)cc1-c1ncc(F)cn1 [Example 277, (2R,3S)-N-[3-(5-fluoropyrimidin-2-yl)-4-methylphenyl]-3-methyl-1-pyridin-2-ylpyrrolidine-2-carboxamide] | 1.4 µM |  | 5.00 to 6.00 |
| O=C(Nc1ccc(C2CC2)c(-c2ccc(F)cn2)c1)N1C2CCCC1C2 [Example 36, N-(4-cyclopropyl-3-(5-fluoropyridin-2-yl)phenyl)-6-azabicyclo[3.1.1]heptane-6-carboxamide] | 1.1 µM |  | 5.00 to 6.00 |
| Cc1ccc(NC(=O)[C@H]2CC[C@@H](C)N2c2ccccn2)cc1-c1ncc(F)cn1 [Example 282, (2R,5R)-N-[3-(5-fluoropyrimidin-2-yl)-4-methylphenyl]-5-methyl-1-pyridin-2-ylpyrrolidine-2-carboxamide] | 1.2 µM |  | 5.00 to 6.00 |
| Cc1ccc(NC(=O)N2CC3CC3(C(F)(F)F)C2)cc1-c1ccccn1 (stereo not drawn) [Example 97, N-(4-methyl-3-pyridin-2-ylphenyl)-1-(trifluoromethyl)-3-azabicyclo[3.1.0]hexane-3-carboxamide] | 11 µM |  | < 5.00 |
| Cc1ccc(NC(=O)N2C3CCCC2C3)cc1-c1ncc(F)c(C#N)n1 [Example 251, N-[3-(4-cyano-5-fluoropyrimidin-2-yl)-4-methylphenyl]-6-azabicyclo[3.1.1]heptane-6-carboxamide] | 1 µM |  | 5.00 to 6.00 |
